Test results as given in publication PMC6985936, “2-Amino-2,3-dihydro-1H-indene-5-carboxamide-Based Discoidin Domain Receptor 1 (DDR1) Inhibitors: Design, Synthesis, and in Vivo Antipancreatic Cancer Efficacy” (Journal of Medicinal Chemistry, 2019).
Where two headings read alike, the source gives them in different places.

Legend:
in vivo = conditions: male, Sprague-Dawley, rat, plasma, po, 25 mg/kg
Procedure: (§1) All animal studies were performed according to the protocols and guidelines of the institutional care and use committee. The 4–6 week old male Sprague-Dawley rats were purchased from the Shanghai Laboratory Animal Research Center (Shanghai, China). All of the procedures related to animal handling, care, and treatment in this article were performed in compliance with Agreement of the Ethics Committee on Laboratory Animal Care and the Guidelines for the Care and Use of Laboratory Animals in Shanghai, China. […] The compound was dissolved in the solution containing 2% DMSO, 4% ethanol, 4% castor oil, and 90% ddH2O. Pharmacokinetic properties of SD rats (male) were determined following intravenous (iv) and oral administration. Animals were randomly distributed into two experimental groups (n = 3). The oral groups were given 25 mg/kg by gastric gavage. The other group was dosed by injection into the tail vein (5 mg/kg). […] Whole blood samples were collected in heparinized tubes. The plasma fraction was immediately separated by centrifugation (8000 rpm, 6 min, 4 °C) and stored at −20 °C until liquid chromatography–mass spectrometry analysis. […] The pharmacokinetics parameters were calculated by analyzing the compound concentration in plasma samples using the pharmacokinetic software DAS.2.0.

[1] = SD rats
Procedure: as §1

- bioavailability (in vivo): 89.9%
- T1/2 ([1]; iv 5 mg/kg): 0.9 h
- Tmax ([1]; iv 5 mg/kg): 0.083 h
- T1/2 ([1]; po 25 mg/kg): 1.7 h
- Tmax ([1]; po 25 mg/kg): 4.0 h
- AUC(0–∞) ([1]; po 25 mg/kg, 25 mg/kg): 80 535 μg/(L h)
SMILES: Cc1cn(-c2cc(NC(=O)c3ccc4c(c3)C[C@H](N(C)c3cncnc3)C4)cc(C(F)(F)F)c2)cn1 [7f, (R)-2-(Methyl(pyrimidin-5-yl)amino)-N-(3-(4-methyl-1H-imidazol-1-yl)-5-(trifluoromethyl)phenyl)-2,3-dihydro-1H-indene-5-carboxamide]
